“Also recorded” adds a separate entry of the source.
Assays:
[1] = Fluorescence spectra of the compounds alone in PBS; format: physicochemical; conditions: excitation 380 nm; compound 5.0 µM in PBS
Procedure: (§1) All fluorescence measurements were performed using a SpectraMax M2e plate reader (Molecular Devices, San Jose, CA, USA). The fluorescence spectra of the compounds’ solution (100 μL PBS, 5.0 µM) were recorded with excitation at 380 nm and an emission wavelength from 400 to 680 nm. To PBS solutions (100 μL) of the compounds (5.0 µM), various Aβ42 species were added, with final concentrations of 5.0 µM and 25.0 µM, and their fluorescence spectra (λmax of emission) were determined as described above.

Aβ42 fibrils = biological target: T1, Aβ42 fibrils (Homo sapiens, UniProt P05067); assay: Fluorescence spectra of compounds with Aβ42 fibrils; format: binding; conditions: excitation 380 nm; compound 5.0 µM in PBS with Aβ fibrils
T1 construct: commercial Aβ42 peptide (AnaSpec or GL Biochem); purchased AnaSpec or GL Biochem
T1 sequence (P05067 672-713 limits assumed): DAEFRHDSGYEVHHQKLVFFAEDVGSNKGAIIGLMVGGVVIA
Procedure: as §1
(§2) Aβ42 powder was prepared by dissolving commercial Aβ42 peptide (AnaSpec or GL Biochem) in ammonium hydroxide solution (1%, v/v). The solution was then aliquoted out and lyophilized overnight. The resulting aliquoted powder was stored at −80 °C. Aβ42 monomers were generated by dissolving Aβ42 powder in 1,1,1,3,3,3-hexafluoro-2-propanol (HFIP, 1 mM) and incubating for 1 h at room temperature. The solution was then evaporated overnight and dried by vacuum centrifuge to result in monomeric films. Aβ42 fibrils were generated by dissolving the monomeric Aβ42 films in DMSO, diluting into the appropriate buffer, and incubating for 24 h at 37 °C with continuous agitation (final DMSO concentration was <2%). For the preparation of Aβ42 oligomers, the peptides were suspended in PBS buffer and incubated overnight at 4 °C.

[2] = biological target: T2, soluble Aβ42 aggregates (sAβ) (Homo sapiens, UniProt P05067); assay: Fluorescence spectra of compounds with soluble Aβ42 aggregates; format: binding; conditions: excitation 380 nm; compound 5.0 µM in PBS with soluble Aβ aggregates
T2 construct: commercial Aβ42 peptide (AnaSpec or GL Biochem); purchased AnaSpec or GL Biochem
T2 sequence (P05067 672-713 limits assumed): as above
Procedure: as §1, §2

[3] = system: Cu-Aβ42 cytotoxicity on N2a cells; assay: N2a cell rescue from Cu-induced Aβ42 cytotoxicity (Alamar blue); format: cell-based, mouse; conditions: [Aβ42] = [CuCl2] = 20 μM, compound 5 μM
Procedure: Mouse neuroblastoma Neuro2A (N2A) cell lines were purchased from the American Type Culture Collection (ATCC), Manassas, VA, USA. Cells were grown in DMEM/10% FBS, which is the regular growth media for N2A cells, in a humidified atmosphere with 5% CO2 at 37 °C. N2A cells were seeded in a clear 96-well plate (2.5 × 10^4/well) with DMEM/10% FBS. The media was changed to DMEM/N-2 media 24 h later. After 1 h, the treatment reagents were added. Owing to the poor solubility of compounds in the media, the final amount of DMSO used was 1% (v/v). After an additional incubation of 40 h, Alamar Blue solution was added to each well, and the cells were incubated for 90 min at 37 °C. Fluorescence intensity was measured at 590 nm (excitation wavelength = 560 nm).
The Alamar Blue assay was carried out as described, with the following treatment reagents: 20 μM Aβ42 species, 5 μM compounds, and 20 μM CuCl2.

[4] = biological target: T3, amyloid plaques in 5xFAD mice brain sections (Homo sapiens, UniProt P05067); assay: Histological staining of 5xFAD mice brain sections, colocalization with HJ3.4 antibody; format: binding, mouse; conditions: 11-month-old 5xFAD mice brain sections, compound 25 μM, HJ3.4 1 μg/mL
T3 construct: the amyloid beta (Aβ) peptide that makes up amyloid plaques; tissue Jackson Laboratories; host or cells: brain sections from 11-month-old 5xFAD transgenic mice (Tg6799 line)
T3 sequence (P05067 672-713 limits assumed): as above
Source text: To further investigate the affinity of the developed compounds toward various Aβ aggregates in situ, the intrinsic fluorescence properties of the compounds were employed for their ability to stain insoluble amyloid plaques. For these studies, brain sections from 11-month-old 5xFAD transgenic mice, which rapidly develop severe amyloid pathology, were co-stained with stilbenes and HJ3.4 antibody. HJ3.4 is an anti-amyloid antibody that binds to the N-terminal region of the Aβ peptide, thereby targeting both soluble and insoluble amyloid species. To evaluate the Aβ binding specificity of the compounds in vitro, brain sections from 11-month-old 5xFAD mice were washed with PBS (3 × 5 min) and blocked with bovine serum albumin (2% w/v BSA in PBS, pH 7.4, 10 min). Then, the sections were incubated with 25 μM of multifunctional compounds and sequentially stained with HJ3.4 antibody (Professor David Holtzman, 1 μg/mL) for 30 min. The brain sections were treated with 2% w/v BSA-PBS again for 4 min to remove any compounds or antibodies that were non-specifically binding to the tissue. Finally, the sections were washed with PBS (3 × 2 min) and DI water (2 min) and mounted with non-fluorescent mounting media (Vectashield). Colocalization analysis and determination of Pearson’s correlation coefficient were performed with the imaging software Fiji (ImageJ 1.52p). Mouse brains were harvested in compliance with the Institutional Animal Care and Use Committee of the University of Illinois at Urbana-Champaign (IACUC protocol #22094).

[5] = Log D measurement octanol/PBS; format: physicochemical; conditions: octanol / PBS pH 7.4, 10 μM, triplicate, ± SD
Procedure: The determination of log D values for N-alkylamino multifunctional compounds was performed using a slightly modified reported procedure. The compounds (final concentration 10 μM) were added to the premix suspension containing 0.5 mL octanol and 0.5 mL octanol-saturated PBS buffer (pH = 7.4). The resulting mixture was stirred vigorously for 5 min and centrifuged at 2000 rpm for 5 min. The octanol layer was separated from the PBS layer, and the fluorescence spectrum was recorded. The remaining 0.5 mL PBS layer was partitioned with 0.5 mL PBS-saturated octanol, and the octanol layer was separated after 5 min of vigorous shaking and centrifuging. The fluorescence spectrum of the octanol layer was recorded. The log D value was calculated based on the fluorescence intensity ratio for the two octanol layers. Each experiment was completed in triplicate, and the error represents the standard deviation for the average log D values.

[6] = biological target: T4, Aβ aggregates (sAβ and Aβ fibrils) (Homo sapiens, UniProt P05067); assay: Fluorescence turn-on assay with Aβ aggregates; format: binding; conditions: compound 5 μM in PBS pH 7.4
T4 construct: commercial Aβ42 peptide (AnaSpec or GL Biochem); purchased AnaSpec or GL Biochem
T4 sequence (P05067 672-713 limits assumed): as above
Procedure: A fluorescence turn-on assay was performed to interrogate the effect of structural differences on the fluorescence enhancement with Aβ aggregates. […] Increases in fluorescence intensity with different aggregates would be ideal for tools used in amyloid-based assays. […] Without the ortho-methoxy group on the EAG, there is greater fluorescence enhancement for Aβ fibrils over sAβ for L3 and L4. […] The larger fluorescence enhancement observed for L6 than L5 indicates the dimethylamine EDG/methoxy EAG pair has a greater TICT. The piperidine-EDG-containing L7 has only slightly higher turn-on with sAβ, which may be attributed to the ortho-methoxy group on the EAG. […] In this case, it appears that the methoxy on the EAG diminishes the overall fluorescence of the compound since L8 has greater baseline fluorescence and turn-on than L7. This is also the case for the morpholine-EDG-containing L9 and L10. The lack of a methoxy group on the L10 EAG, in conjunction with the oxygen heteroatom from the morpholine EDG, electronically favors turn-on with Aβ fibrils to a slight extent. […] Changing the EDG to a methyl piperazine, L11, increases baseline fluorescence and turn-on compared to L9. […] L11 and L12, both containing an N-methyl piperazine EDG, show similar turn-on with sAβ and fibrils, and the o-methoxy EAG of L11 increases overall baseline fluorescence compared to L12. […] The spectra for the remaining compounds can be found in the Supplementary Information (Figure S1). None of the three compounds with the highest fluorescence contained an o-methoxy group on the EAG.
as §1, with “above. […]” for “above.”

Aβ40 peptide = biological target: T5, Aβ40 peptide (Homo sapiens, UniProt P05067); assay: Aβ40 aggregation inhibition assay monitored by ThT fluorescence; format: biochemical; conditions: 25 μM Aβ40, 5 μM ThT, 5 μM compound, 37 °C, 48 h
T5 construct: a peptide solution of 25 μM Aβ40 monomers (AnaSpec, Fremont, CA, USA) was prepared; purchased AnaSpec
T5 sequence (P05067 672-711 limits assumed): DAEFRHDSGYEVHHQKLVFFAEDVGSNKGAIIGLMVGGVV
Procedure: To investigate the effect of these compounds on amyloid aggregation, inhibition of aggregation assays were performed using the Aβ40 peptide. Aβ40 has been implicated in inducing oxidative stress and is physiologically the most common isoform of the amyloid peptide and is therefore a widely used isoform in amyloid assays. Aβ40 is also known to have slower aggregation kinetics than Aβ42, which is helpful for studying the inhibition of the early aggregation pathway. […] Thus, a lower RFU can be interpreted as inhibiting the fibrillization of amyloids. The rest of the compounds show appreciable inhibition of Aβ aggregation as found in the Supplementary Materials (Figure S2), except for L9, which contains the morpholine EDG and a methoxy group on the EAG (Figure 3). The addition of the more polar oxygen heteroatom may instead favor hydrogen bonding interactions within the aqueous media, thereby solvating the compound and reducing early interactions with soluble aggregates. Lastly, although L2 and L3 show similar amyloid inhibition, the L3 compound lacking the o-methoxy group begins inhibition at an earlier time. […] This procedure was established in a previous publication.

| Compound λem (λmax of emission) [1] [nm] | Compound+Fibrils λem (λmax of emission) (Aβ42 fibrils) [nm] | Compound+sAβ λem (λmax of emission) [2] [nm] | Pearson's coefficient (R) of colocalization with AF594-HJ3.4 [4] | logD [5] | Structure (SMILES) | effect on Cu-stabilized Aβ42 / Aβ42-induced toxicity [3] | fluorescence enhancement / turn-on with Aβ aggregates [6] | inhibition of Aβ40 aggregation (ThT RFU) (Aβ40 peptide) |
| --- | --- | --- | --- | --- | --- | --- | --- | --- |
| 455 | 455 | 455 | 0.67 | 1.33 ± 0.01 | COc1cc(/C=C/c2ccc(N(C)C)cc2)cc(CN2CCN(C)CCN(C)CC2)c1O [Compound L1, (E)-2-((4,7-dimethyl-1,4,7-triazonan-1-yl)methyl)-4-(4-(dimethylamino)styryl)-6-methoxyphenol] | rescue cells from Cu-Aβ42 cytotoxicity | – | – |
| 460 | 435 | 435 | 0.74 | 1.39 ± 0.01 | CCN(CC)c1ccc(/C=C/c2cc(CN3CCN(C)CCN(C)CC3)c(O)c(OC)c2)cc1 [Compound L5, (E)-4-(4-(diethylamino)styryl)-2-((4,7-dimethyl-1,4,7-triazonan-1-yl)methyl)-6-methoxyphenol] | rescue cells from Cu-Aβ42 cytotoxicity | – | – |
| 455 | 430 | 430 | 0.70 | 1.37 ± 0.01 | CCN(CC)c1ccc(/C=C/c2ccc(O)c(CN3CCN(C)CCN(C)CC3)c2)cc1 [Compound L6, (E)-4-(4-(diethylamino)styryl)-2-((4,7-dimethyl-1,4,7-triazonan-1-yl)methyl)phenol] | – | – | – |
| 455 | 450 | 450 | 0.77 | 0.85 ± 0.01 | COc1cc(/C=C/c2ccc(N3CCN(C)CC3)cc2)cc(CN2CCN(C)CCN(C)CC2)c1O [Compound L11, (E)-2-((4,7-dimethyl-1,4,7-triazonan-1-yl)methyl)-6-methoxy-4-(4-(4-methylpiperazin-1-yl)styryl)phenol] | inhibit both Cu-stabilized Aβ42- and Aβ42-induced toxicity; also recorded: rescue cells from Cu-Aβ42 cytotoxicity | – | – |

The next lines start with the compound.

| Structure (SMILES) | Compound λem (λmax of emission) [1] [nm] | Compound+Fibrils λem (λmax of emission) (Aβ42 fibrils) [nm] | Compound+sAβ λem (λmax of emission) [2] [nm] | Pearson's coefficient (R) of colocalization with AF594-HJ3.4 [4] | logD [5] | effect on Cu-stabilized Aβ42 / Aβ42-induced toxicity [3] | fluorescence enhancement / turn-on with Aβ aggregates [6] | inhibition of Aβ40 aggregation (ThT RFU) (Aβ40 peptide) |
| --- | --- | --- | --- | --- | --- | --- | --- | --- |
| CNc1ccc(/C=C/c2ccc(O)c(CN3CCN(C)CCN(C)CC3)c2)cc1 [Compound L3, (E)-2-((4,7-dimethyl-1,4,7-triazonan-1-yl)methyl)-4-(4-(methylamino)styryl)phenol] | 455 | 430 | 430 | 0.72 | 0.98 ± 0.01 | – | – | – |
| CN1CCN(C)CCN(Cc2cc(/C=C/c3ccc(N(C)C)cc3)ccc2O)CC1 [Compound L4, (E)-2-((4,7-dimethyl-1,4,7-triazonan-1-yl)methyl)-4-(4-(dimethylamino)styryl)phenol] | 455 | 435 | 435 | 0.60 | 1.44 ± 0.01 | toxicity was exacerbated | greatest overall fluorescence enhancements | greatest inhibition; also recorded: best inhibition |
| COc1cc(/C=C/c2ccc(N3CCCCC3)cc2)cc(CN2CCN(C)CCN(C)CC2)c1O [Compound L7, (E)-2-((4,7-dimethyl-1,4,7-triazonan-1-yl)methyl)-6-methoxy-4-(4-(piperidin-1-yl)styryl)phenol] | 460 | 430 | 430 | 0.66 | 1.35 ± 0.02 | – | – | – |
| CN1CCN(C)CCN(Cc2cc(/C=C/c3ccc(N4CCOCC4)cc3)ccc2O)CC1 [Compound L10, (E)-2-((4,7-dimethyl-1,4,7-triazonan-1-yl)methyl)-4-(4-morpholinostyryl)phenol] | 455 | 435 | 435 | 0.74 | 1.03 ± 0.01 | rescue cells from Cu-Aβ42 cytotoxicity | highest fluorescence intensity; also recorded: greatest overall fluorescence enhancements | – |

Source: publication PMC12156033, “N-Alkylamino Stilbene Compounds as Amyloid β Inhibitors for Alzheimer’s Disease Research” (Molecules, 2025)
